Experimental data as given in US20260262643A1, “HERBICIDAL BENZOXAZINES” (FMC CORPORATION, priority 2022, published 2026).

Tests used:
wheat [1] = test: Test C postemergence; assay type: in vivo, Triticum aestivum; settings: 10 days, 0 to 100 scale (0 no effect, 100 complete control)
Procedure, shortened: (§1)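 Pre: seeds in loam/sand, directed soil spray. Post: 1–2 leaf plants, 2–10 cm. Cmpd in non-phytotoxic solvent + surfactant. Greenhouse 10 d; visual rating vs untreated, 0 = none, 100 = complete control.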

barnyardgrass [2] = test: Test C preemergence; assay type: in vivo, Echinochloa crusgalli; settings: preemergence, 0 to 100 scale (0 no effect, 100 complete control)
Procedure, shortened: as §1

soybean [3] = test: Test C preemergence; assay type: in vivo, Glycine max; settings: preemergence, 0 to 100 scale (0 no effect, 100 complete control)
Procedure, shortened: as §1

barnyardgrass [4] = test: Test D flooded paddy test; assay type: in vivo, Echinochloa crus-galli; settings: 250 g ai/ha, applied to paddy water, visual rating after 13 to 14 days, scale 0 to 100 (0 no effect, 100 complete control)
Procedure, shortened: (§2)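 Plants at the 2-leaf stage were grown in pots flooded to 3 cm, and compound was applied directly into the paddy water, with depth kept throughout. After 13–14 days in a greenhouse, injury was rated visually against untreated controls on a 0–100 scale (100 = complete control); a dash means not tested.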

pigweed, palmer [5] = test: Test C preemergence; assay type: in vivo, Amaranthus palmeri; settings: preemergence, 0 to 100 scale (0 no effect, 100 complete control)
Procedure, shortened: as §1

kochia [6] = test: Test C preemergence; assay type: in vivo, Bassia scoparia; settings: preemergence, 0 to 100 scale (0 no effect, 100 complete control)
Procedure, shortened: as §1

oat, wild [7] = test: Test C postemergence; assay type: in vivo, Avena fatua; settings: 10 days, 0 to 100 scale (0 no effect, 100 complete control)
Procedure, shortened: as §1

soybean [8] = test: Test C postemergence; assay type: in vivo, Glycine max; settings: 10 days, 0 to 100 scale (0 no effect, 100 complete control)
Procedure, shortened: as §1

ragweed [9] = test: Test C preemergence; assay type: in vivo, Ambrosia artemisiifolia; settings: preemergence, 0 to 100 scale (0 no effect, 100 complete control)
Procedure, shortened: as §1

ryegrass, Italian [10] = test: Test C preemergence; assay type: in vivo, Lolium multiflorum; settings: preemergence, 0 to 100 scale (0 no effect, 100 complete control)
Procedure, shortened: as §1

corn [11] = test: Test C postemergence; assay type: in vivo, Zea mays; settings: 10 days, 0 to 100 scale (0 no effect, 100 complete control)
Procedure, shortened: as §1

wheat [12] = test: Test C preemergence; assay type: in vivo, Triticum aestivum; settings: preemergence, 0 to 100 scale (0 no effect, 100 complete control)
Procedure, shortened: as §1

kochia [13] = test: Test C postemergence; assay type: in vivo, Bassia scoparia; settings: 10 days, 0 to 100 scale (0 no effect, 100 complete control)
Procedure, shortened: as §1

ryegrass, Italian [14] = test: Test C postemergence; assay type: in vivo, Lolium multiflorum; settings: 10 days, 0 to 100 scale (0 no effect, 100 complete control)
Procedure, shortened: as §1

sedge, umbrella = test: Test D flooded paddy test; assay type: in vivo, Cyperus difformis; settings: 250 g ai/ha, applied to paddy water, visual rating after 13 to 14 days, scale 0 to 100 (0 no effect, 100 complete control)
Procedure, shortened: as §2

rice = test: Test D flooded paddy test; assay type: in vivo, Oryza sativa; settings: 250 g ai/ha, applied to paddy water, visual rating after 13 to 14 days, scale 0 to 100 (0 no effect, 100 complete control)
Procedure, shortened: as §2

barnyardgrass [15] = test: Test C postemergence; assay type: in vivo, Echinochloa crusgalli; settings: 10 days, 0 to 100 scale (0 no effect, 100 complete control)
Procedure, shortened: as §1

green foxtail [16] = test: Test C postemergence; assay type: in vivo, Setaria viridis; settings: 10 days, 0 to 100 scale (0 no effect, 100 complete control)
Procedure, shortened: as §1

ragweed [17] = test: Test C postemergence; assay type: in vivo, Ambrosia artemisiifolia; settings: 10 days, 0 to 100 scale (0 no effect, 100 complete control)
Procedure, shortened: as §1

blackgrass [18] = test: Test C postemergence; assay type: in vivo, Alopecurus myosuroides; settings: 10 days, 0 to 100 scale (0 no effect, 100 complete control)
Procedure, shortened: as §1

galium = test: Test C postemergence; assay type: in vivo, Galium aparine; settings: 10 days, 0 to 100 scale (0 no effect, 100 complete control)
Procedure, shortened: as §1

corn [19] = test: Test C preemergence; assay type: in vivo, Zea mays; settings: preemergence, 0 to 100 scale (0 no effect, 100 complete control)
Procedure, shortened: as §1

oat, wild [20] = test: Test C preemergence; assay type: in vivo, Avena fatua; settings: preemergence, 0 to 100 scale (0 no effect, 100 complete control)
Procedure, shortened: as §1

pigweed, palmer [21] = test: Test C postemergence; assay type: in vivo, Amaranthus palmeri; settings: 10 days, 0 to 100 scale (0 no effect, 100 complete control)
Procedure, shortened: as §1

green foxtail [22] = test: Test C preemergence; assay type: in vivo, Setaria viridis; settings: preemergence, 0 to 100 scale (0 no effect, 100 complete control)
Procedure, shortened: as §1

ducksalad = test: Test D flooded paddy test; assay type: in vivo, Heteranthera limosa; settings: 250 g ai/ha, applied to paddy water, visual rating after 13 to 14 days, scale 0 to 100 (0 no effect, 100 complete control)
Procedure, shortened: as §2

blackgrass [23] = test: Test C preemergence; assay type: in vivo, Alopecurus myosuroides; settings: preemergence, 0 to 100 scale (0 no effect, 100 complete control)
Procedure, shortened: as §1

horseweed = test: Test C postemergence; assay type: in vivo, Erigeron canadensis; settings: 10 days, 0 to 100 scale (0 no effect, 100 complete control)
Procedure, shortened: as §1

COC[C@H]1CN(C(=O)c2cc(-n3cnc(C(C)C)n3)ccc2C)c2cccc(Cl)c2O1 [Compound 313]
Plant response rating, Wheat (wheat [1]; 500 g ai/ha, postemergence): 50 | Plant response rating, Wheat (wheat [1]; Postemergence, 125 g ai/ha): 30 | Barnyardgrass plant response rating (barnyardgrass [2]; 500 g ai/ha): 100 | Barnyardgrass plant response rating (barnyardgrass [2]; Test C, 125 g ai/ha): 80 | Soybean plant response rating (soybean [3]; 500 g ai/ha): 100 | Soybean plant response rating (soybean [3]; Test C, 125 g ai/ha): 40 | Plant response rating, Barnyardgrass (Flood) (barnyardgrass [4]): 35 | Pigweed, Palmer plant response rating (pigweed, palmer [5]; 500 g ai/ha): 100 | Pigweed, Palmer plant response rating (pigweed, palmer [5]; Test C, 125 g ai/ha): 100 | Kochia plant response rating (kochia [6]; 500 g ai/ha): 100 | Kochia plant response rating (kochia [6]; Test C, 125 g ai/ha): 80 | Plant response rating, Oat, Wild (oat, wild [7]; 500 g ai/ha, postemergence): 60 | Plant response rating, Oat, Wild (oat, wild [7]; Postemergence, 125 g ai/ha): 20 | Plant response rating, Soybean (soybean [8]; 500 g ai/ha, postemergence): 100 | Plant response rating, Soybean (soybean [8]; Postemergence, 125 g ai/ha): 100 | Ragweed plant response rating (ragweed [9]; 500 g ai/ha): 70 | Ragweed plant response rating (ragweed [9]; Test C, 125 g ai/ha): 0 | Ryegrass, Italian plant response rating (ryegrass, Italian [10]; 500 g ai/ha): 100 | Ryegrass, Italian plant response rating (ryegrass, Italian [10]; Test C, 125 g ai/ha): 80 | Plant response rating, Corn (corn [11]; 500 g ai/ha, postemergence): 90 | Plant response rating, Corn (corn [11]; Postemergence, 125 g ai/ha): 80 | Wheat plant response rating (wheat [12]; 500 g ai/ha): 90 | Wheat plant response rating (wheat [12]; Test C, 125 g ai/ha): 20 | Plant response rating, Kochia (kochia [13]; 500 g ai/ha, postemergence): 90 | Plant response rating, Kochia (kochia [13]; Postemergence, 125 g ai/ha): 90 | Plant response rating, Ryegrass, Italian (ryegrass, Italian [14]; 500 g ai/ha, postemergence): 90 | Plant response rating, Ryegrass, Italian (ryegrass, Italian [14]; Postemergence, 125 g ai/ha): 80 | Plant response rating, Sedge, Umbrella (Flood) (sedge, umbrella): 98 | Plant response rating, Rice (Flood) (rice): 20 | Plant response rating, Barnyardgrass (barnyardgrass [15]; 500 g ai/ha, postemergence): 70 | Plant response rating, Barnyardgrass (barnyardgrass [15]; Postemergence, 125 g ai/ha): 40 | Plant response rating, Foxtail, Green (green foxtail [16]; 500 g ai/ha, postemergence): 90 | Plant response rating, Foxtail, Green (green foxtail [16]; Postemergence, 125 g ai/ha): 40 | Plant response rating, Ragweed (ragweed [17]; 500 g ai/ha, postemergence): 90 | Plant response rating, Ragweed (ragweed [17]; Postemergence, 125 g ai/ha): 60 | Plant response rating, Blackgrass (blackgrass [18]; 500 g ai/ha, postemergence): 100 | Plant response rating, Blackgrass (blackgrass [18]; Postemergence, 125 g ai/ha): 70 | Plant response rating, Galium (galium; 500 g ai/ha, postemergence): 100 | Plant response rating, Galium (galium; Postemergence, 125 g ai/ha): 100 | Corn plant response rating (corn [19]; 500 g ai/ha): 0 | Corn plant response rating (corn [19]; Test C, 125 g ai/ha): 0 | Oat, Wild plant response rating (oat, wild [20]; 500 g ai/ha): 90 | Oat, Wild plant response rating (oat, wild [20]; Test C, 125 g ai/ha): 90 | Plant response rating, Pigweed, Palmer (pigweed, palmer [21]; 500 g ai/ha, postemergence): 100 | Plant response rating, Pigweed, Palmer (pigweed, palmer [21]; Postemergence, 125 g ai/ha): 80 | Foxtail, Green plant response rating (green foxtail [22]; 500 g ai/ha): 100 | Foxtail, Green plant response rating (green foxtail [22]; Test C, 125 g ai/ha): 100 | Plant response rating, Ducksalad (Flood) (ducksalad): 65 | Blackgrass plant response rating (blackgrass [23]; 500 g ai/ha): 60 | Blackgrass plant response rating (blackgrass [23]; Test C, 125 g ai/ha): 50 | Plant response rating, Horseweed (horseweed; 500 g ai/ha, postemergence): 90 | Plant response rating, Horseweed (horseweed; Postemergence, 125 g ai/ha): 90
